Data published in article PMC6173696, “Structural properties of a haemophore facilitate targeted elimination of the pathogen Porphyromonas gingivalis” (Nature Communications, 2018).

Columns and labels:
[1] = tested on: H413 gingival epithelial cell; assay type: cell-based, Human
Method: Human gingival epithelial cells were grown to confluence and seeded on plastic chamber slides (75 × 25 mm^2) for incubation in 5% CO2 atmosphere overnight. Bacterial cells were co-incubated with epithelial cells at 37 °C for 2 h. After exposure to the antibiotics, epithelial cells were washed in PBS and incubated in culture media containing 5% FCS for 24 h. Subsequently, samples in the chamber slides were fixed with 4% fresh paraformaldehyde in PBS for 30 min at room temperature, washed in PBS, and permeabilised by ice-cold methanol for 5 min. Samples were then blocked overnight with 10% FCS supplemented with 0.05% (v/v) Triton X-100 in PBS buffer. Intracellular P. gingivalis was stained using the primary antibody IIB2[44] and fluorochrome-conjugated secondary antibody. […] Labelled epithelial cells with invaded bacteria were detected using an Olympus FV1000 confocal laser scanning microscope. In addition, the intrinsic fluorescence of P8 allowed temporal tracking of internalisation of P8 into epithelial cells in a separate experiment. Live cell images were recorded using a DeltaVision Elite Core Microscope.
Supplementary Figure 23. (A) UV-vis spectra of 10 µM P8 alone and in the presence of 10 µM HusA. (B) Stability assay of P8 in the presence of gingival epithelial cell lysate. The intensity of P8 fluorescence was applied to monitor the stability of P8 in the presence of cell lysate. […]

HusA L123N-V124N = target: T1, HusA L123N-V124N (Porphyromonas gingivalis, UniProt Q7MSY3, L123N/V124N); experiment: Tryptophan fluorescence quenching assay, HusA mutant L123N-V124N; assay type: binding; details: mutant LV123/4NN
T1 sequence (Q7MSY3 24-218 L123N/V124N): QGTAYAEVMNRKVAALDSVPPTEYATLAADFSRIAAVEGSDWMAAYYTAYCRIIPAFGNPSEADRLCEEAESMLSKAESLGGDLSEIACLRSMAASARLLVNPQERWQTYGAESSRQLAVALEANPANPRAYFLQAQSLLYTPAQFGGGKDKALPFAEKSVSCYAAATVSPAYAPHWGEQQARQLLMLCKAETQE
Method: The quenching of intrinsic tryptophan fluorescence of HusA upon porphyrin additions was measured using a Carey Eclipse Fluorescence Spectrophotometer (Agilent) set to a photo multiplier effect (PME) of 850. A 5-mm path length quartz cuvette was used and all spectra were acquired at room temperature. Excitation was set to 295 nm and emission was measured from 300 nm to 500 nm using excitation/emission slit widths of 5 nm. Binding assays were performed at a protein concentration of 1 μM HusA in standard buffer at a working volume of 0.5 mL. […] The fluorescence quenching of HusA by PPIX was investigated in a similar manner with the following difference: the fluorescence intensities of ten 1 μM HusA samples were measured each with increasing amounts of PPIX after a 2-h incubation period to allow equilibrium to be reached. See Supplementary Methods for correction for inner filter effect and curve fitting. […]
Correction of inner filter effect and curve fitting in tryptophan fluorescence quenching assays The concentration of NATA was chosen such that the raw fluorescence intensity was similar to the 10 uM concentrations of HusA and mutants used. […] Fluorescence intensity was scaled with respect to the starting florescence and corrected for the inner filter effect. Fluorescence at 335 nm was used to fit binding curves. […]

## CC1=Cc2cc3[nH]c(cc4nc(cc5[nH]c(cc1n2)cc5C)C(C)=C4CCC(=O)N[C@@H](CCCCNC(=O)OC(C)(C)C)C(=O)NCCn1c([N+](=O)[O-])cnc1C)c(CCC(=O)O)c3C [P8]
[1]; 20 µM P8
  integrity of epithelial cells (confocal images): remain intact
[1]; over a 2-h period
  accumulation in epithelial cells: progressive accumulation

## C=CC1=C(C)c2cc3[nH]c(cc4nc(cc5[nH]c(cc1n2)c(C)c5CCC(=O)O)C(CCC(=O)O)=C4C)c(C)c3C=C.[Fe+3] [haemin]
HusA L123N-V124N
  reduction of haemin affinity compared to wild-type: > 50%
